# Source: PMC5111045, “Modulation of NMDA channel gating by Ca^2+ and Cd^2+ binding to the external pore mouth” (Scientific Reports, 2016)
# Values joined by “and” are separate entries in the source; they are usually repeats but may differ in a detail not shown here. Equal values may be shown once. Read-outs that look alike come from different tables or passages of the source.
# How the values were obtained:
# [1] = molecular target: T1, NMDA receptor channel (GluN1a variant/GluN2B), wild-type (Rattus norvegicus, UniProt P35439+Q00960); assay: Outside-out patch recordings of NMDA receptor currents, wild-type channel expressed in Xenopus oocytes; assay type: cell-based
# T1 construct: expressed in transfected cells; host or cells: Xenopus laevis oocytes (cRNA injection)
# Experimental: (§1) The rat GluN1a variant and GluN2B cDNA clones were used in this study. Point mutations were made by site-directed mutagenesis using the QuickChange Site-Directed Mutagenesis kit (Stratagene, La Jolla, CA). Mutations were verified by DNA sequencing to ensure the lack of any inadvertent mutations. The capped cRNA transcripts were then synthesized using T7 and T3 mMESSAGE mMACHINE transcription kits (Ambion, Austin, TX), and were stored at −80 °C.
# (§2) This study was carried out in accordance with the ethical information guidelines of the National Taiwan University College of Medicine. The protocols for the care and use of animals were approved by the National Taiwan University College of Medicine and College of Public Health Institutional Animal Care and Use Committee (IACUC). All efforts were made to minimize animal suffering. Adult female Xenopus laevis were anesthetized, and ovarian lobes containing stage V or VI oocytes were removed. Oocytes were dispersed after manual disruption of the egg sac, and were digested for 1 hr with collagenase type I (2 mg/ml) to remove the follicular layer. A mixture of GluN1a variant and GluN2B cRNAs with a ratio of 1:5 (i.e., 0.1–4 ng of GluN1a variant and 0.5–20 ng of GluN2B) (Kashiwagi et al. 2002) was injected into oocytes. Oocytes were maintained in the culture medium (96 mM NaCl, 2 mM KCl, 1.8 mM MgCl2, 1.8 mM CaCl2, 5 mM HEPES, and 50 ug/ml gentamycin, pH 7.6) at 18 °C for 2–3 days before electrophysiological recordings.
# Oocytes were placed in a recording chamber containing Mg^2+-free bath solution (150 mM NaMeSO3, 5 mM NaCl, and 10 mM HEPES; pH 7.4). Outside-out patch recordings were obtained using fire-polished pipettes pulled from borosilicate capillaries (outer diameter, 1.55–1.60 mm; Hilgenberg, Malsfeld, Germany). Recording pipettes ([…]) were filled with the pipette solution containing 150 mM NaMeSO3, 5 mM NaCl, 5 mM EGTA, and 10 mM HEPES (pH 7.4). A seal was formed, and the outside-out patch configuration was obtained in Tyrode’s solution (150 mM NaCl, 4 mM KCl, 2 mM MgCl2, 2 mM CaCl2, and 10 mM HEPES; pH 7.4). The patch was then lifted from the bottom of the chamber and moved in front of a set of “theta glass” tubes (2.0 mm outer diameter pulled to an opening of ~300 μm in width; Warner Instrument, Hamden, CT) emitting external recording solutions. The standard external solution was Mg^2+-free Ca^2+-free Tyrode’s solution (pH 7.4), but 2 mM Ca^2+ or 0.1–100 μM Cd^2+ may be added to the external recording solution as specified in each different experimental condition. The glass-tube holder was connected to a stepper motor (SF-77B perfusion system, Warner Instrument) to achieve fast switch for rapid solution change. Drugs and salts were purchased from Sigma (St. Louis, MO). NMDA, glycine, and Cd^2+ were dissolved in water to make 100, 100, and 10 mM stock solutions, respectively. The stock solutions were then diluted into the external recording solution to make 1 to 100 μM Cd^2+, 1 to 300 μM NMDA, and 30 μM glycine. The NMDA currents were recorded at a membrane potential of −70 mV and at room temperature (~25 °C) with an […] amplifier, filtered at 1 kHz with a four-pole Bessel filter, digitized at 500 μs intervals, and stored using a Digidata-1322A analog/digital interface along with the pCLAMP software (all from MDS Analytical Technologies, Sunnyvale, CA). To plot the activation and the desensitization curves, a patch was moved from the NMDA- and glycine-free external solution to the external solution containing 0 to 100 μM NMDA and 30 μM glycine for 3 s (the desensitization prepulse), and then moved to another external solution containing 300 μM NMDA and 30 μM glycine for 3 s (the test pulse) before being moved back to the NMDA-free external solution again. The amplitude of the sustained currents in the desensitization prepulse in each different concentration of NMDA is normalized to the maximal current and plotted against the NMDA concentration to obtain the activation curve. […]
# [2] = molecular target: E661A mutant NMDA channel; assay: Outside-out patch recordings, E661A mutant NMDA channel; assay type: cell-based, rat; settings: Hill coefficient of 1 assumed
# Experimental: as §1
# (§3) This study was carried out in accordance with the ethical information guidelines of the National Taiwan University College of Medicine. The protocols for the care and use of animals were approved by the National Taiwan University College of Medicine and College of Public Health Institutional Animal Care and Use Committee (IACUC). All efforts were made to minimize animal suffering. […]
# (§4) Oocytes were placed in a recording chamber containing Mg^2+-free bath solution (150 mM NaMeSO3, 5 mM NaCl, and 10 mM HEPES; pH 7.4). […] The NMDA currents were recorded at a membrane potential of −70 mV and at room temperature (~25 °C) with an […] amplifier, filtered at 1 kHz with a four-pole Bessel filter, digitized at 500 μs intervals, and stored using a Digidata-1322A analog/digital interface along with the pCLAMP software (all from MDS Analytical Technologies, Sunnyvale, CA). […]
# [3] = molecular target: E662A mutant NMDA channel; assay: Outside-out patch recordings, E662A mutant NMDA channel; assay type: cell-based, rat; settings: Hill coefficient of 1 assumed
# Experimental: as §1, §3, §4
# [4] = molecular target: T2, E661AE662A double mutant NMDA channel (Rattus norvegicus, UniProt P35439+Q00960, E661A/E662A); assay: Outside-out patch recordings, E661AE662A double mutant NMDA channel; assay type: cell-based; settings: for coupling coefficient ((KdWT × KdE661AE662A)/(KdE661A × KdE662A)), double mutant cycle analysis: mutations E661A and E662A; for Kd: E661AE662A, Hill coefficient of 1 assumed
# T2 construct: expressed in transfected cells; host or cells: Xenopus laevis oocytes (cRNA injection)
# Experimental: as §1, §2
# Oocytes were placed in a recording chamber containing Mg^2+-free bath solution (150 mM NaMeSO3, 5 mM NaCl, and 10 mM HEPES; pH 7.4). Outside-out patch recordings were obtained using fire-polished pipettes pulled from borosilicate capillaries (outer diameter, 1.55–1.60 mm; Hilgenberg, Malsfeld, Germany). Recording pipettes ([…]) were filled with the pipette solution containing 150 mM NaMeSO3, 5 mM NaCl, 5 mM EGTA, and 10 mM HEPES (pH 7.4). A seal was formed, and the outside-out patch configuration was obtained in Tyrode’s solution (150 mM NaCl, 4 mM KCl, 2 mM MgCl2, 2 mM CaCl2, and 10 mM HEPES; pH 7.4). The patch was then lifted from the bottom of the chamber and moved in front of a set of “theta glass” tubes (2.0 mm outer diameter pulled to an opening of ~300 μm in width; Warner Instrument, Hamden, CT) emitting external recording solutions. The standard external solution was Mg^2+-free Ca^2+-free Tyrode’s solution (pH 7.4), but 2 mM Ca^2+ or 0.1–100 μM Cd^2+ may be added to the external recording solution as specified in each different experimental condition. The glass-tube holder was connected to a stepper motor (SF-77B perfusion system, Warner Instrument) to achieve fast switch for rapid solution change. Drugs and salts were purchased from Sigma (St. Louis, MO). NMDA, glycine, and Cd^2+ were dissolved in water to make 100, 100, and 10 mM stock solutions, respectively. The stock solutions were then diluted into the external recording solution to make 1 to 100 μM Cd^2+, 1 to 300 μM NMDA, and 30 μM glycine. The NMDA currents were recorded at a membrane potential of −70 mV and at room temperature (~25 °C) with an […] amplifier, filtered at 1 kHz with a four-pole Bessel filter, digitized at 500 μs intervals, and stored using a Digidata-1322A analog/digital interface along with the pCLAMP software (all from MDS Analytical Technologies, Sunnyvale, CA). […]
# [5] = molecular target: T3, D658A mutant NMDA channel (Rattus norvegicus, UniProt P35439+Q00960, D658A); assay: Outside-out patch recordings, D658A mutant NMDA channel; assay type: cell-based; settings: 30 μM Cd2+ between NMDA pulses; P = 0.034
# T3 construct: expressed in transfected cells; host or cells: Xenopus laevis oocytes (cRNA injection)
# Experimental: as §1, §3, §4
# [6] = molecular target: T4, D658AE661AE662A triple mutant NMDA channel (Rattus norvegicus, UniProt P35439+Q00960, D658A/E661A/E662A); assay: Outside-out patch recordings, D658AE661AE662A triple mutant NMDA channel; assay type: cell-based
# T4 construct: expressed in transfected cells; host or cells: Xenopus laevis oocytes (cRNA injection)
# Experimental: as §1, §3, §4
# [7] = molecular target: T5, T647A (GluN2B) mutant NMDA channel (Rattus norvegicus, UniProt P35439+Q00960, T647A); assay: Outside-out patch recordings, T647A (GluN2B) mutant NMDA channel; assay type: cell-based; settings: 30 μM Cd2+
# T5 construct: expressed in transfected cells; host or cells: Xenopus laevis oocytes (cRNA injection)
# Experimental: as §1, §2, §4
# [8] = Fig. 5e inset, read-out: apparent dissociation constant, closed channel, derived from relative peak current in 30 μM Cd2+
# [9] = Fig. 6e inset, read-out: apparent dissociation constant, activated channel, derived from relative sustained current in 30 μM Cd2+
# T1 sequence (Q00960 27-1482, other chains not shown): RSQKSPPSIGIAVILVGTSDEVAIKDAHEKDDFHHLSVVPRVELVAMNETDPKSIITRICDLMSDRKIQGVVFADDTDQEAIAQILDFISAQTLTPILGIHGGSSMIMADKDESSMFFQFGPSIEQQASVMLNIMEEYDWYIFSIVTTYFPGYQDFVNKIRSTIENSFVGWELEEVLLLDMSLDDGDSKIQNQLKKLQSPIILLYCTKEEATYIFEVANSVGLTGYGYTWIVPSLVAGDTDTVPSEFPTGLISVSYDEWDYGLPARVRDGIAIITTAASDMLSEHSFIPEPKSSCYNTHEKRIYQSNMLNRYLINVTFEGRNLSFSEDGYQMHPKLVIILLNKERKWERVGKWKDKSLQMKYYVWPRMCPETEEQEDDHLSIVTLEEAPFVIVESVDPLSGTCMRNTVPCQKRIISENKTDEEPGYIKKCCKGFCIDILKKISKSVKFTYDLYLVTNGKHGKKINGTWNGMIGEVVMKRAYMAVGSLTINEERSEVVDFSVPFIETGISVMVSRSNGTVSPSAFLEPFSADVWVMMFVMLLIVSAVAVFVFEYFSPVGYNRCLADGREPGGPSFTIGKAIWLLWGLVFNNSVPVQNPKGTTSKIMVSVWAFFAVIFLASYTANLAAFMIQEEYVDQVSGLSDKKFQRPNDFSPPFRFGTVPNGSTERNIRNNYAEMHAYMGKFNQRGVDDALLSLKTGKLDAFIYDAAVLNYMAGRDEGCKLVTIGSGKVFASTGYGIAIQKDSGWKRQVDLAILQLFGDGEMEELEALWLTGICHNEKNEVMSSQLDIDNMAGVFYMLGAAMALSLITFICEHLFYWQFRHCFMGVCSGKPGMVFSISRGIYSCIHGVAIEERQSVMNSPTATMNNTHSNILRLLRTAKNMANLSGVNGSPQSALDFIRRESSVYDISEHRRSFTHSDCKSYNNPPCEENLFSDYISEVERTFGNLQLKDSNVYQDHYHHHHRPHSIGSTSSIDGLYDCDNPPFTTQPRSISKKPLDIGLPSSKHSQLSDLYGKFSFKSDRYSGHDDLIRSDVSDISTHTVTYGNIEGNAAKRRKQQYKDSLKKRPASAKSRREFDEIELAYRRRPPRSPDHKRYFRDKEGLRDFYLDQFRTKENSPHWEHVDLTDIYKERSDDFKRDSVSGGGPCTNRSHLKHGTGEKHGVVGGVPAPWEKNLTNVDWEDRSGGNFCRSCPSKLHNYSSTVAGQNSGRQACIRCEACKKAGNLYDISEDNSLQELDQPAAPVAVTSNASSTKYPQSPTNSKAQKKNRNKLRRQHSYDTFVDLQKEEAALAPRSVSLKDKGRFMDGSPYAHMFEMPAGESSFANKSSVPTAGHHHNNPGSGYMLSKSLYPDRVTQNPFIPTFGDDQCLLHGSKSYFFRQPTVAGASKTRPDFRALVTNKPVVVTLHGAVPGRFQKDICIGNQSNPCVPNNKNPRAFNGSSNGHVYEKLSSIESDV
# T2 sequence (Q00960 27-1482, other chains not shown): as above
# T4 sequence (Q00960 27-1482, other chains not shown): as above
smiles,measurement,setting,value
[Cd+2] [Cd^2+],shift of the activation curve,"[1]; 3 μM Cd2+, n = 4",moderate leftward shift
same,shift of the desensitization curve,"[1]; 3 μM Cd2+, n = 4",moderate leftward shift
same,effect on NMDAR currents relative to 2 mM Ca2+,[1]; 30 μM Cd2+ vs 2 mM Ca2+ in the extracellular milieu,stronger effects than 2 mM Ca^2+
same,Kd,"[1]; activated (steady-state mixture of open and desensitized) channel, Cd2+ during the NMDA pulse, Fig. 3b, n = 7, read-out: apparent dissociation constant (Kd), Hill fit of relative sustained current",~1.6 µM
same,Kd,"[1]; activated channel, sustained current, mean ± SEM, read-out: Kd from fits of each individual data set, Fig. 3b",1.4 ± 0.16 µM
same,"Hill coefficient n, relative sustained current","[1]; activated channel, Fig. 3b",1
same,slope of unbinding rates against Cd2+ concentration,"[1]; activated channel, essentially zero, n = 4",~ 0.01 M^−1s^−1
same,macroscopic on rate (slope of binding rates against Cd2+ concentration),"[1]; activated channel, fast application of Cd2+, n = 4",430000 M⁻¹ s⁻¹
same,intercept of binding rates against Cd2+ concentration,"[1]; activated channel, linear regression, n = 4",9.4 s⁻¹
same,macroscopic off rate (intercept of unbinding rates),"[1]; activated channel, wash-off of Cd2+, n = 4",6.8 s⁻¹
same,Kd,"[1]; closed (resting) channel, Cd2+ applied in the interpulse phase, Fig. 2b, n = 7, read-out: apparent dissociation constant (Kd), Hill fit of relative peak current",6 µM and ~6 µM
same,Kd,"[1]; closed channel, activation speed, mean ± SEM, read-out: Kd from fits of each individual data set, Fig. 2d",3.4 ± 0.66 µM
same,Kd,"[1]; closed channel, peak current, mean ± SEM, read-out: Kd from fits of each individual data set, Fig. 2b",7.6 ± 1.2 µM
same,Kd,"[1]; closed channel, Cd2+ in the interpulse phase, Fig. 2d, n = 4, read-out: apparent dissociation constant (Kd), Hill fit of relative initial activation speed",4.5 µM and ~4.5 µM
same,"Hill coefficient n, relative peak current","[1]; closed channel, Fig. 2b",1
same,"Hill coefficient n, relative activation speed","[1]; closed channel, Fig. 2d",1
same,Kd,"[1]; equal to KCd2+,o × m/r from model fits in 3 μM Cd2+, not a precise estimate, read-out: KCd2+,d (dissociation constant for Cd2+ binding to the desensitized NMDA channel)",1.25 µM
same,Kd,"[1]; model fit (equations 2 and 4) to activation and desensitization data in 3 μM Cd2+, not a precise estimate, read-out: KCd2+,o (dissociation constant for Cd2+ binding to the open NMDA channel)",2.5 µM
same,"r value, r = m × (KCd2+,o/KCd2+,d)","[1]; model fit to activation and desensitization data in 3 μM Cd2+, m set at 4",8
same,Kd,"[1]; ratio between the macroscopic off rate and on rate, Fig. 4a inset, read-out: rough estimate of the dissociation constant of Cd2+ to the open state",~16 µM
same,Kd,"[1]; wild-type, Hill coefficient of 1 assumed, Fig. 5e inset, read-out: apparent dissociation constant, closed channel, derived from relative peak current in 30 μM Cd2+",19.6 µM
same,Kd,"[1]; wild-type, Hill coefficient of 1 assumed, Fig. 6e inset, read-out: apparent dissociation constant, activated channel, derived from relative sustained current in 30 μM Cd2+",3.2 µM
same,Kd,[2]; [8],40.7 µM
same,Kd,[2]; [9],7.7 µM
same,Kd,[3]; [8],37.3 µM
same,Kd,[3]; [9],5.6 µM
same,"coupling coefficient ((KdWT × KdE661AE662A)/(KdE661A × KdE662A)), double mutant cycle analysis",[4]; Cd2+ binding to the activated NMDA channel,1.03
same,"coupling coefficient ((KdWT × KdE661AE662A)/(KdE661A × KdE662A)), double mutant cycle analysis",[4]; Cd2+ binding to the closed NMDA channel,0.90
same,Kd,[4]; [8],70.2 µM
same,Kd,[4]; [9],13.9 µM
same,"effect on peak current, closed channel, compared with WT",[5],less pronounced
same,"effect on peak current, closed channel, compared with WT","[6]; 30 μM Cd2+ between NMDA pulses, P = 0.0093",less pronounced
same,"effect on sustained current, activated channel, compared with WT","[6]; 30 μM Cd2+ during NMDA pulse, P = 0.00031",less pronounced
same,"relative hook current after wash-off of agonists and blocking cation, compared with WT channel",[7]; P = 0.00012,significantly larger hook current
same,inhibitory effect on sustained current (relative current) compared with WT channel,"[7]; n = 8 vs WT n = 6, P = 0.00037",significantly smaller effect
